≈ marks a conversion by molar mass, not a printed value. Read-outs that look alike come from different tables or passages of the source.
Tests used:
Assay in all cases: in vitro agar dilution test (MIC)
Assay type in all cases: cell-based
[1] = tested on: Acinetobacter calcoaceticus MOR 84-43; details: MOR8443
Protocol: (§1) The compounds of the present invention are active antibacterial agents as established in the in vitro agar dilution test using Mueller-Hinton agar. The test compounds were dissolved in a mixture of dimethyl sulfoxide and aqueous sodium bicarbonate and applied as 1 ml of drug solution plus 9 ml of agar per plate. The innoculum was a 5 hour TSB shake culture diluted to 10^-2 with Mueller-Hinton broth and applied to the plates with a Steers' Replicator.
(§2) The results of this test on representative compounds of this invention (identified by Example Number) against a variety of microorganisms appear in Tables I and II in terms of minimal inhibitory concentration (MIC) in mcg/ml together with Cefotaxime, Cephalothin and Ampicillin as positive controls.

[2] = tested on: Enterobacter aerogenes VGH 84-36; details: Klebsiella aerogenes, VGH8436
Protocol: as §1, §2

[3] = tested on: Enterobacter cloacae K 84-10; details: K8410
Protocol: as §1, §2

[4] = tested on: Enterobacter cloacae VGH 84-37; details: VGH8437
Protocol: as §1, §2

Enterococcus VGH 84-65 = details: VGH8465
Protocol: as §1, §2

[5] = tested on: Escherichia coli ATCC 25922; details: ATCC25922, Mueller-Hinton agar, Table II
Protocol: as §1, §2

[6] = tested on: Escherichia coli CMC 84-11; details: CMC8411, Mueller-Hinton agar
Protocol: as §1, §2

[7] = tested on: Escherichia coli CMC 84-16; details: CMC8416
Protocol: as §1, §2

[8] = tested on: Escherichia coli No. 311 N.A.; details: Mueller-Hinton agar
Protocol: as §1, §2

[9] = tested on: Escherichia coli No. 311(Parent); details: Mueller-Hinton agar
Protocol: as §1, §2

[10] = tested on: Klebsiella oxytoca MOR 84-28; details: MOR8428
Protocol: as §1, §2

[11] = tested on: Klebsiella pneumoniae AD (MP)
Protocol: as §1, §2

[12] = tested on: Klebsiella pneumoniae MOR 84-4; details: MOR844
Protocol: as §1, §2

[13] = tested on: Morganella morganii CMC 84-37; details: CMC8437
Protocol: as §1, §2

[14] = tested on: Morganella morganii VGH 84-11; details: VGH8411
Protocol: as §1, §2

[15] = tested on: Proteus rettgheri CMC 84-41
Protocol: as §1, §2

[16] = tested on: Pseudomonas aeruginosa 12-4-4 (MP)
Protocol: as §1, §2

[17] = tested on: Pseudomonas aeruginosa VGH 84-4; details: VGH844
Protocol: as §1, §2

[18] = tested on: Serratia marcesans F 35 (MP)
Protocol: as §1, §2

[19] = tested on: Serratia marcesans K 84-18; details: K8418
Protocol: as §1, §2

[20] = tested on: Staphylococcus aureus ATCC 25923; details: ATCC25923
Protocol: as §1, §2

[21] = tested on: Staphylococcus aureus CMC 83-128; details: CMC83128
Protocol: as §1, §2

[22] = tested on: Staphylococcus aureus CMC 83-131; details: CMC83131
Protocol: as §1, §2

[23] = tested on: Staphylococcus aureus CMC 83-132; details: CMC83132
Protocol: as §1, §2

[24] = tested on: Staphylococcus aureus Smith (MP)
Protocol: as §1, §2

[25] = tested on: Staphylococcus epidermidis CMC 83-135; details: CMC83135
Protocol: as §1, §2

[26] = tested on: Staphylococcus epidermidis IO 83-58; details: IO8358
Protocol: as §1, §2

[27] = tested on: Staphylococcus saprophyticus VGH 84-50; details: VGH8450
Protocol: as §1, §2

[28] = Acinetobacter calcoaceticus MOR 84-43, Mueller-Hinton agar, read-out: MIC
[29] = Enterococcus VGH 84-65, Mueller-Hinton agar, read-out: MIC
[30] = Klebsiella oxytoca MOR 84-28, Mueller-Hinton agar, read-out: MIC
[31] = Klebsiella pneumoniae AD (MP), Mueller-Hinton agar, Table II, read-out: MIC
[32] = Klebsiella pneumoniae MOR 84-4, Mueller-Hinton agar, read-out: MIC
[33] = Proteus rettgheri CMC 84-41, Mueller-Hinton agar, read-out: MIC
[34] = Serratia marcesans K 84-18, Mueller-Hinton agar, read-out: MIC
[35] = Staphylococcus aureus ATCC 25923, Mueller-Hinton agar, Table II, read-out: MIC
[36] = Staphylococcus aureus CMC 83-128, Mueller-Hinton agar, read-out: MIC
[37] = Staphylococcus aureus CMC 83-131, Mueller-Hinton agar, read-out: MIC
[38] = Staphylococcus aureus CMC 83-132, Mueller-Hinton agar, read-out: MIC
[39] = Staphylococcus aureus Smith (MP), Mueller-Hinton agar, Table II, read-out: MIC
[40] = Staphylococcus epidermidis CMC 83-135, Mueller-Hinton agar, read-out: MIC
[41] = Staphylococcus epidermidis IO 83-58, Mueller-Hinton agar, read-out: MIC
[42] = Staphylococcus saprophyticus VGH 84-50, Mueller-Hinton agar, read-out: MIC
[43] = Escherichia coli CMC 84-16, Mueller-Hinton agar, read-out: MIC
[44] = Enterobacter aerogenes VGH 84-36, Mueller-Hinton agar, read-out: MIC
[45] = Enterobacter cloacae K 84-10, Mueller-Hinton agar, read-out: MIC
[46] = Enterobacter cloacae VGH 84-37, Mueller-Hinton agar, read-out: MIC
[47] = Morganella morganii CMC 84-37, Mueller-Hinton agar, read-out: MIC
[48] = Morganella morganii VGH 84-11, Mueller-Hinton agar, read-out: MIC
[49] = Pseudomonas aeruginosa 12-4-4 (MP), Mueller-Hinton agar, Table II, read-out: MIC
[50] = Pseudomonas aeruginosa VGH 84-4, Mueller-Hinton agar, read-out: MIC
[51] = Serratia marcesans F 35 (MP), Mueller-Hinton agar, read-out: MIC

Compound: CC1(C)S[C@@H]2[C@H](NC(=O)[C@H](N)c3ccccc3)C(=O)N2[C@H]1C(=O)O [Ampicillin, reference compound]
- MIC [1, 28]: 32 µg/mL (≈ 91.6 µM)
- MIC [2]: 256 µg/mL (≈ 733 µM)
- MIC ([3]; Enterobacter cloacae): > 256 µg/mL
- MIC ([4]; Enterobacter cloacae): > 256 µg/mL
- MIC (Enterococcus VGH 84-65; [29]): 1 µg/mL (≈ 2.86 µM)
- MIC [5]: 4 µg/mL (≈ 11.4 µM)
- MIC [6]: 4 µg/mL (≈ 11.4 µM)
- MIC ([7]; Escherichia coli): > 256 µg/mL
- MIC [8]: 2 µg/mL (≈ 5.72 µM)
- MIC [9]: 2 µg/mL (≈ 5.72 µM)
- MIC [10, 30]: 32 µg/mL (≈ 91.6 µM)
- MIC [11, 31]: 0.25 µg/mL (≈ 0.715 µM)
- MIC [12, 32]: 32 µg/mL (≈ 91.6 µM)
- MIC ([13]; Morganella morganii): 256 µg/mL (≈ 733 µM)
- MIC ([14]; Morganella morganii): > 256 µg/mL
- MIC [15, 33]: 0.5 µg/mL (≈ 1.43 µM)
- MIC ([16]; Pseudomonas aeruginosa): > 256 µg/mL
- MIC ([17]; Pseudomonas aeruginosa): > 256 µg/mL
- MIC ([18]; Serratia): > 256 µg/mL
- MIC [19, 34]: 64 µg/mL (≈ 183 µM)
- MIC [20, 35]: ≤ 0.12 µg/mL
- MIC [21, 36]: ≤ 0.12 µg/mL
- MIC [22, 37]: 2 µg/mL (≈ 5.72 µM)
- MIC [23, 38]: 1 µg/mL (≈ 2.86 µM)
- MIC [24, 39]: ≤ 0.12 µg/mL
- MIC [25, 40]: ≤ 0.12 µg/mL
- MIC [26, 41]: 16 µg/mL (≈ 45.8 µM)
- MIC [27, 42]: ≤ 0.12 µg/mL

Compound: CC(=O)OCC1=C(C(=O)O)N2C(=O)[C@@H](NC(=O)Cc3cccs3)[C@H]2SC1 [Cephalothin, reference compound]
- MIC ([1]; Acinetobacter calcoaceticus): > 256 µg/mL
- MIC [2]: > 256 µg/mL
- MIC ([3]; Enterobacter cloacae): > 256 µg/mL
- MIC ([4]; Enterobacter cloacae): > 256 µg/mL
- MIC (Enterococcus VGH 84-65; Enterococcus): 32 µg/mL (≈ 80.7 µM)
- MIC [5]: 16 µg/mL (≈ 40.4 µM)
- MIC [6]: 8 µg/mL (≈ 20.2 µM)
- MIC [7, 43]: 16 µg/mL (≈ 40.4 µM)
- MIC [8]: 8 µg/mL (≈ 20.2 µM)
- MIC [9]: 8 µg/mL (≈ 20.2 µM)
- MIC ([10]; Klebsiella oxytoca): > 256 µg/mL
- MIC ([11]; Klebsiella pneumoniae): 1 µg/mL (≈ 2.52 µM)
- MIC ([12]; Klebsiella pneumoniae): 2 µg/mL (≈ 5.04 µM)
- MIC ([13]; Morganella morganii): > 256 µg/mL
- MIC ([14]; Morganella morganii): > 256 µg/mL
- MIC [15]: 4 µg/mL (≈ 10.1 µM)
- MIC ([16]; Pseudomonas aeruginosa): > 256 µg/mL
- MIC ([17]; Pseudomonas aeruginosa): > 256 µg/mL
- MIC ([18]; Serratia): > 256 µg/mL
- MIC ([19]; Serratia): > 256 µg/mL
- MIC ([20]; Staphylococcus aureus): 0.25 µg/mL (≈ 0.631 µM)
- MIC ([21]; Staphylococcus aureus): ≤ 0.12 µg/mL
- MIC ([22]; Staphylococcus aureus): 32 µg/mL (≈ 80.7 µM)
- MIC ([23]; Staphylococcus aureus): 32 µg/mL (≈ 80.7 µM)
- MIC ([24]; Staphylococcus aureus): ≤ 0.12 µg/mL
- MIC ([25]; Staphylococcus epidermidis): ≤ 0.12 µg/mL
- MIC ([26]; Staphylococcus epidermidis): 0.25 µg/mL (≈ 0.631 µM)
- MIC ([27]; Staphylococcus saprophyticus): 0.25 µg/mL (≈ 0.631 µM)

Compound: Cc1snnc1SCC1=C(C(=O)O)N2C(=O)[C@@H](NC(=O)Cc3cccs3)[C@H]2SC1 [Example 8, (6R-trans)-3-[[(5-Methyl-1,2,3-thiadiazol-4-yl)thio]methyl]-8-oxo-7-[(2-thienylacetyl)amino]-5-thia-1-azabicyclo[4.2.0]oct-2-ene-2-carboxylic acid]
- MIC [1, 28]: > 256 µg/mL
- MIC [2, 44]: 256 µg/mL (≈ 546 µM)
- MIC [3, 45]: > 256 µg/mL
- MIC [4, 46]: > 256 µg/mL
- MIC (Enterococcus VGH 84-65; [29]): 32 µg/mL (≈ 68.3 µM)
- MIC [5]: 64 µg/mL (≈ 137 µM)
- MIC [6]: 64 µg/mL (≈ 137 µM)
- MIC [7, 43]: 64 µg/mL (≈ 137 µM)
- MIC [8]: 32 µg/mL (≈ 68.3 µM)
- MIC [9]: 32 µg/mL (≈ 68.3 µM)
- MIC [10, 30]: 256 µg/mL (≈ 546 µM)
- MIC [11, 31]: 8 µg/mL (≈ 17.1 µM)
- MIC [12, 32]: 32 µg/mL (≈ 68.3 µM)
- MIC [13, 47]: > 256 µg/mL
- MIC [14, 48]: > 256 µg/mL
- MIC [15, 33]: 2 µg/mL (≈ 4.27 µM)
- MIC [16, 49]: > 256 µg/mL
- MIC [17, 50]: > 256 µg/mL
- MIC [18, 51]: > 256 µg/mL
- MIC [19, 34]: > 256 µg/mL
- MIC [20, 35]: 0.5 µg/mL (≈ 1.07 µM)
- MIC [21, 36]: 1 µg/mL (≈ 2.13 µM)
- MIC [22, 37]: 32 µg/mL (≈ 68.3 µM)
- MIC [23, 38]: 32 µg/mL (≈ 68.3 µM)
- MIC [24, 39]: ≤ 0.12 µg/mL
- MIC [25, 40]: ≤ 0.12 µg/mL
- MIC [26, 41]: 2 µg/mL (≈ 4.27 µM)
- MIC [27, 42]: 1 µg/mL (≈ 2.13 µM)

Compound: CCc1snnc1SCC1=C(C(=O)O)N2C(=O)[C@@H](NC(=O)Cc3cccs3)[C@H]2SC1 [Example 10, (6R-trans)-3-[[(5-Ethyl-1,2,3-thiadiazol-4-yl)thio]methyl]-8-oxo-7-[(2-thienylacetyl)amino]-5-thia-1-azabicyclo[4.2.0]oct-2-ene-2-carboxylic acid]
- MIC [1, 28]: > 256 µg/mL
- MIC [2, 44]: > 256 µg/mL
- MIC [3, 45]: > 256 µg/mL
- MIC [4, 46]: > 256 µg/mL
- MIC (Enterococcus VGH 84-65; [29]): 32 µg/mL (≈ 66.3 µM)
- MIC [5]: 64 µg/mL (≈ 133 µM)
- MIC [6]: 128 µg/mL (≈ 265 µM)
- MIC [7, 43]: 128 µg/mL (≈ 265 µM)
- MIC [8]: 64 µg/mL (≈ 133 µM)
- MIC [9]: 64 µg/mL (≈ 133 µM)
- MIC [10, 30]: 128 µg/mL (≈ 265 µM)
- MIC [11, 31]: 16 µg/mL (≈ 33.2 µM)
- MIC [12, 32]: 64 µg/mL (≈ 133 µM)
- MIC [13, 47]: > 256 µg/mL
- MIC [14, 48]: > 256 µg/mL
- MIC [15, 33]: 4 µg/mL (≈ 8.29 µM)
- MIC [16, 49]: > 256 µg/mL
- MIC [17, 50]: > 256 µg/mL
- MIC [18, 51]: > 256 µg/mL
- MIC [19, 34]: > 256 µg/mL
- MIC [20, 35]: 0.5 µg/mL (≈ 1.04 µM)
- MIC [21, 36]: 1 µg/mL (≈ 2.07 µM)
- MIC [22, 37]: 32 µg/mL (≈ 66.3 µM)
- MIC [23, 38]: 32 µg/mL (≈ 66.3 µM)
- MIC [24, 39]: ≤ 0.12 µg/mL
- MIC [25, 40]: ≤ 0.12 µg/mL
- MIC [26, 41]: 2 µg/mL (≈ 4.14 µM)
- MIC [27, 42]: 1 µg/mL (≈ 2.07 µM)

From patent publication US4927922A, “7β-(substituted)amino-3-substituted cephalosporanic acids and esters” (American Cyanamid Company, priority 1988, dated 1990)
